US20220362299A1, “ENGINEERED NATURAL KILLER CELLS AND METHODS FOR USING THE SAME IN IMMUNOTHERAPY AND AUTOPHAGY INHIBITON TECHNIQUES” (Purdue Research Foundation, priority 2019, published 2022)

Assays:
[1] = tested on: pNK cells; experiment: Transwell BBB migration assay of pNK cells; type: cell-based, human; conditions: 100 ng/mL in lower chamber, 6 hours
Description: To determine involvement of CCL5 and CXCL10 in the migration of NK cells, the migration of activated pNK cells toward CCL5 and CXCL10 gradients was then tracked using an in vitro BBB model setup by a direct contact co-culture of primary human astrocytes and […] human cerebral microvessel endothelial cells (FIG. 12, subpart G).
An in vitro direct contact co-culture blood-brain barrier (BBB) model was established as previously described^53. Briefly, human astrocytes were seeded at a density of 4×10^4 cells/cm^2 into 24-well Transwell® inserts (pore size 5 μm) pre-coated with 2 μg/cm^2 poly-L-lysine and allowed to proliferate/differentiate for 48 hours in media. Media was then removed and the hCMEC/D3 cells suspended into EBM-2 media were seeded at a density of 1×10^5 cells/cm^2.
The co-culture was grown in EBM-2 with media changes every other day for an additional 7 days before studies were conducted. 600 μL of RPMI1640 medium supplemented with 1% FBS containing recombinant CCL5 or CXCL10 at 100 ng/mL was placed in the lower chamber of the Transwell® plate. Activated pNK cells (5×10^5) in 100 μL RPM11640 medium supplemented with 1% FBS were placed into the upper chamber (5-μm pore size). After incubation for 6 hours at 37° C. and 5% CO2, the number of pNK cells that migrated into the lower chamber was determined by flow cytometry. […]

[2] = tested on: GBM43 cells; experiment: ELISA of CCL5 and CXCL10 in supernatant of GBM43 cells; type: cell-based, human; conditions: with CQ 50 μM, 24 h
Source text: To evaluate changes in the protein levels of these chemokines and gain more insight into the underlying molecular mechanisms, chemokine concentrations were quantified in the conditioned media of CQ-treated GBM43 cells using ELISA in absence and presence of various pharmacological inhibitors driving signaling pathways for these chemokines. This included the PI3K inhibitor LY294002, NF-κB inhibitor BAY11-7082 and JNK inhibitor SP600125.
More specifically, to measure secreted CCL5 and CXCL10, GBM43 cells were treated with CQ at a final concentration of 50 μM in presence or absence of various small molecule inhibitors, including LY294002, BAY11-7082 and SP600125 for 24 hours. Supernatants were collected and the levels of CCL5 and CXCL10 were quantified using Human CCL5 and CXCL10 Biolegend-ELISA MAX™ Deluxe Sets according to the manufacturer's directions. To look at the levels of multiple chemokines secretion from GBM43 cells, the cell culture supernatants were also collected and all the selected targets were determined with the chemokine array provided by Eve Technologies (Calgary, Canada).

[3] = tested on: pNK cells; experiment: Effect of adenosine on pNK cell viability (CCK-8) and NKG2D expression (flow cytometry); type: cell-based, human; conditions: 1000 μM adenosine, 24 h
Description: To verify this, pNK cells were seeded into a 24-well plate at a density of 5×10^5 cells/well in 500 μL medium. Adenosine was then added to a final concentration of 1000 μM. After 24 h, the cells were collected and their viability (%) was determined via a CCK-8 assay (subpart A of FIG. 2). The NKG2D expression (% and MFI) was determined by flow cytometry (subpart B of FIG. 2). […] These findings support that there is a need to increase NKG2D expression on NK cells through engineering.

[4] = biological target: T1, CD73 (ecto-5'-nucleotidase, NT5E) on patient-derived GBM43 glioblastoma cells (human, UniProt P21589 27-549); experiment: immunofluorescence (Protein L) on sections of subcutaneous GBM43 xenograft tumors
T1 construct: whole, on cells; Endogenous surface CD73 of human patient-derived GBM43 cells, in culture or as xenograft tumors
T1 sequence (looked up): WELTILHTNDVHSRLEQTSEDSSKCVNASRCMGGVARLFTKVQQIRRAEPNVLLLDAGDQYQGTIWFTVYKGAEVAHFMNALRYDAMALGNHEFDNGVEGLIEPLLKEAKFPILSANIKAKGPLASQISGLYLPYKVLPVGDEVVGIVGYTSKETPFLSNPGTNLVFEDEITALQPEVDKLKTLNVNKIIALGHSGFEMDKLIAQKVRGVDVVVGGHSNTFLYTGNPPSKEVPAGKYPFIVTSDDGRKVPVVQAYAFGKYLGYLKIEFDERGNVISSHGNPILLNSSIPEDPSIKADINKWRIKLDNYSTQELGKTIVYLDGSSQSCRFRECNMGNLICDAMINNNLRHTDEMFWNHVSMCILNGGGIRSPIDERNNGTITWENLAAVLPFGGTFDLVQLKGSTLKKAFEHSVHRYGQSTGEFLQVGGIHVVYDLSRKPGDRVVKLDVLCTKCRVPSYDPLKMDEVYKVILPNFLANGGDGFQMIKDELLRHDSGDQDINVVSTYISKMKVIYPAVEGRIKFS

[5] = tested on: CD73; experiment: CD73 activity of GBM43 cells (AMP hydrolysis, malachite green phosphate assay); type: cell-based, human
Description: To test for CD73 activity and its ability to generate adenosine, GBM43 cells were seeded at 2×10^4 cells per well in a 96-well plate in complete DMEM. After overnight incubation, GBM43 cells were incubated with anti-CD73 scFv following uPA (100 nM)-mediated cleavage from either CD73.mCAR-NK92 or CD73.mCAR-pNK cells during incubation for 6 hours. Then, the cell medium was removed and cells were rinsed three times with phosphate-free buffer (117 mM NaCl, 5.3 mM KCl, 1.8 mM MgCl2, 26 mM NaHCO3, 10 mM glucose, pH 7.4, diluted in ddH2O). AMP (250 μM final), diluted in phosphate-free buffer, was added and incubated for 10 min at 37° C. Finally, the phosphate (Pi) concentrations resulting from AMP hydrolysis were measured using a malachite green phosphate assay kit following the manufacturer's instructions.

## CXCL10: Recombinant human CXCL10
[1]
  migration of activated pNK cells along ligand gradient across in vitro BBB: significantly increased

## Cc1ccc(S(=O)(=O)/C=C/C#N)cc1 [BAY11-7082]
[2]
  inhibition of the CQ-elevated production of CCL5 and CXCL10: significantly inhibited

## Nc1ncnc2c1ncn2[C@@H]1O[C@H](CO)[C@@H](O)[C@H]1O [adenosine]
[3]; CCK-8
  cell viability of pNK cells: clear negative affect
[3]; flow cytometry
  NKG2D expression on pNK cells: decreased

B1: anti-CD73 scFv cleaved by uPA or tumor-associated proteases from Construct 1 (CD73.mCAR) on engineered NK cells (scFv)
scFv: EVQLLESGGGLVQPGGSLRLSCAASGFTFSSYAYSWVRQAPGKGLEWVSAISGSGGRTYYADSVKGRFTISRDNSKNTLYLQMNSLRAEDTAVYYCARLGYGRVDEWGRGTLVTVSSGGGGSGGGGSGGGGSQSVLTQPPSASGTPGQRVTISCSGSLSNIGRNPVNWYQQLPGTAPKLLIYLDNLRLSGVPDRFSGSKSGTSASLAISGLQSEDEADYYCATWDDSHPGWTFGGGTKLTVLGGGGSGGGGSGGGGS
notes: Soluble fragment released from CD73.mCAR-NK92 or CD73.mCAR-pNK cells, by 100 nM uPA in vitro or by tumor proteases in vivo; also called αCD73 scFv; aCD73 scFv; not shown: the cleavage site is
[4]
  binding result: binds

B2: anti-CD73 scFv: CD73-blocking single chain antibody fragment released from the CAR by uPA / tumor-associated protease cleavage (protein)
scFv: B1 scFv
modifications: left off: small tags and cut ends
[5]; scFv cleaved by uPA from CD73.mCAR-NK92 cells
  production of extracellular adenosine by GBM43 cells (CD73 activity): significantly decreased production
[5]; scFv cleaved from CD73.mCAR-pNK cells
  ability of GBM43 cells to produce adenosine (CD73 activity): significantly reduced ability to produce adenosine

B3: CCL5: Recombinant human RANTES (CCL5) (protein, UniProt P13501 24-91, looked up)
C-C motif chemokine 5: SPYSSDTTPCCFAYIARPLPRAHIKEYFYTSGKCSNPAVVFVTRKNRQVCANPEKKWVREYINSLEMS
[1]
  migration of activated pNK cells along ligand gradient across in vitro BBB: significantly increased
